The subject of series [1] is hES cells (CyT49). The experiment in a line: Further differentiation of definitive endoderm to pancreatic endoderm and endocrine cells, real-time PCR at day 9 (Example 2). In kind it is cell-based, human. The settings on record: definitive endoderm produced with 100 ng/mL factor, compared with activin A, FIG. 3. Here is the method: (§1) Human ES cell cultures were maintained and differentiated substantially as described above in Example 1, and further differentiated to foregut endoderm (stage 2) and then onto pancreatic endoderm and pancreatic endocrine cells (stages 3 and 4). After 48 hours of differentiation to definitive endoderm (stage 1) the cells were briefly washed in PBS+/+ and then further differentiated in RPMI supplemented with 0.2% FBS, Insulin-Transferrin-Selenium (1:1000), Glutamax, penicillin/streptomycin, and 25 ng/mL KGF (R&D Systems) for 3 days. On the first day of stage 2, the culture also received TGF-beta inhibitor No. 4 (3-(6-Methylpyridin-2-yl)-4-(4-quinolyl)-1-phenylthiocarbamoyl-1H-pyrazole) at 2.5 uM (EMD Bioscience). After three days in stage 2 the cells were then differentiated for one day in DMEM with B27 supplement (1:100) containing all-trans retinoic acid (RA) at 0.2 uM and KAAD-cyclopamine at 0.25 uM. Following the single day of retinoid exposure, the cells were cultured in DMEM with B27 (1:100) containing noggin at 40 ng/ml. At day 9 of total differentiation, replicate samples were collected from each culture condition and analyzed for relative gene expression using real-time quantitative PCR.
(Real-time PCR tracks product formation cycle by cycle.)

Series [2] has as its system hES cells (CyT49; passage 41). The experiment in a line: Differentiation of hES cells to definitive endoderm (stage 1) with TGF-beta member growth factors, real-time quantitative PCR (Example 1). Particulars: for effectiveness for induction of definitive endoderm differentiation derived from hES cells: compared with activin A; for fold induction of SOX17 gene expression as compared to undifferentiated hESCs / fold induction of FOXA2 gene expression as compared to undifferentiated hESCs: 100 ng/ml factor, 75 ng/mL Wnt3a on first day, day 2 of differentiation; for fold induction of SOX17 gene expression as compared to undifferentiated hESCs: FIG. 2C; for efficiency in generating definitive endoderm cell populations: sufficient amounts, compared to Activin A and activin B. In kind it is cell-based, human. From the text: Human embryonic stem (hES) cells were differentiated in vitro to definitive endoderm (stage 1) for about 2-4 days substantially as described in D'Amour et al. 2006 Nat Biotechnol 24(11):1392-401 and U.S. Patent Application Publication Number 2007/0154984, which are herein incorporated in their entireties. Briefly, undifferentiated human embryonic stem (hES) cells were maintained on mouse embryo fibroblast feeder layers (Millipore, formerly Chemicon or Specialty Media) or on human serum coated plates (Valley Biomedical) in DMEM/F12 (Mediatech) supplemented with 20% KnockOut serum replacement (Invitrogen/Gibco), 1 mM nonessential amino acids (Invitrogen/Gibco), Glutamax (Invitrogen/Gibco), penicillin/streptomycin (Invitrogen/ Gibco), 0.55 mM 2-mercaptoethanol (Invitrogen/Gibco) and 4 ng/ml to 20 ng/mL recombinant human FGF2 (R&D Systems). Low dosages of Activin A (10-25 ng/ml, R&D Systems) were added to the growth culture medium to help maintain undifferentiated growth. Cultures were either manually passaged, or enzymatically passaged using 5 ug/mL dispase (Invitrogen/Gibco), or passaged using Accutase (Innovative Cell Technologies #AT104) at 1:4-1:15 split ratios every 3-7 days. Before initiating differentiation, hES cells were given a brief wash in PBS+/+ (PBS+/+ refers to PBS containing both calcuim and magnesium) (Mediatech).
Four hES cell culture plates (CyT49; passage 41) were then differentiated in RPMI (Mediatech) supplemented with Glutamax, penicillin/streptomycin, and with either: i) 100 ng/mL activin A, ii) 100 ng/mL of activin B (R&D Systems), iii) 100 ng/mL of GDF8, or iv) 100 ng/mL of GDF11 (R&D Systems) and varying concentrations of defined FBS (HyClone). Additionally, 0.1% BSA (Invitrogen/Gibco) and 75 ng/mL Wnt3a (R&D Systems) were added on the first day (d0) of differentiation. FBS concentrations were 0% for the first 24 h and 0.2% for the second 24 h. Replicate samples were collected from each culture condition at 0, 24 and 48 hours after differentiation commenced and analyzed for relative gene expression using real-time quantitative PCR.

Series [3] deals with hES cells (CyT49; passage 35). Briefly: Differentiation of hES cells to definitive endoderm with activin A plus Wnt3a or GSK3 inhibitors, real-time quantitative PCR at 48 hours (Example 4). In kind it is cell-based, human. Particulars: with 100 ng/mL activin A; inhibitor at 10 or 100 nM; FIG. 6A-B. As to the method:
Undifferentiated hES cells (CyT49; passage 35) were maintained substantially as described in Example 1 above. Ten hES cell culture plates were then differentiated in RPMI (Mediatech) supplemented with Glutamax, penicillin/streptomycin, and varying concentrations of defined FBS (HyClone). FBS concentrations were 0% for the first 24 h and 0.2% for the second 24 h. Additionally, 0.1% BSA (Invitrogen/Gibco) was added on the first day only. All plates received 100 ng/mL activin A for both days. […] Replicate samples were collected from each culture condition at 48 hours after differentiation commenced and analyzed for relative gene expression using real-time quantitative PCR.

For series [4], the system named is hES cells (CyT49; passage 48). Briefly: Further differentiation to pancreatic endoderm and endocrine cells, real-time PCR at 12 days (Example 3). In kind it is cell-based, human. The settings on record: 12 days of differentiation. As to the method:
as §1
Such conditions are described in Example 2 above. In this example, however, the stage 4 noggin treatment lasted for 6 days and replicate samples were taken for real-time PCR analysis at a total of 12 days of differentiation as compared to 9 days of differentiation in Example 2. […] Similarly, the pancreatic endoderm or endocrine cells expressing endocrine markers NKX2-2 and INS were typically not detected in the non-activin A treated plates (FIG. 5C-D). Stated another way, the activin A treated plates were 1200-fold or more higher in expression of these markers than the non-Activin A treated plates.

In series [5] the test system is hES cells (CyT49; passage 48). Briefly: Differentiation of hES cells with other TGF-beta family member proteins, real-time quantitative PCR (Example 3). In kind it is cell-based, human. Particulars: for CDX2 induction level, fold higher expression over that observed with the activin A treatment: GDF3 500 ng/ml, TGF-beta3 100 ng/mL, FIG. 4C. Here is the method:
Undifferentiated human embryonic stem (hES) cells (CyT49; passage 48) were maintained substantially as described in Example 1 above. Seven hES cell culture plates were then differentiated in RPMI (Mediatech) supplemented with Glutamax, penicillin/streptomycin, and either: i) activin A (100 ng/ml), ii) TGF-beta1 (100 ng/ml), iii) TGF-beta3 (100 ng/mL), iv) TGF-beta2 (200 ng/ml), v) GDF3 (500 ng/ml), vi) GDF9 (4 ug/ml), or vii) GDF15 (2.5 ug/ml) and varying concentrations of defined FBS (HyClone). Additionally, 0.1% BSA (Invitrogen/Gibco) and 75 ng/mL Wnt3a (R&D Systems) were added on the first day (d0) of differentiation. FBS concentrations were 0% for the first 24 h and 0.2% for the second 24 h. Replicate samples were collected from each culture condition at 0, 24 and 48 hours after differentiation commenced and analyzed for relative gene expression using real-time quantitative PCR.

For series [6], the system named is hES cells. The settings on record: McLean et al. Stem Cells 25:29-38 2007; cited from earlier work.

Consider “GDF8: TGF-beta family member, also referred to as myostatin”, for which, in series [1], the “subsequent differentiation of definitive endoderm to pancreatic endoderm expressing PDX1 and PTF1A or endocrine cells expressing NKX2-2” value (“subsequent differentiation” for short) is on record as “as effective”. Further, the “effectiveness for induction of definitive endoderm differentiation derived from hES cells” value in series [2] (100 ng/mL) is on record as “as effective as activin A”. Besides, in series [2], the “fold induction of SOX17 gene expression as compared to undifferentiated hESCs” value was 1324 fold and the “efficiency in generating definitive endoderm cell populations” value is reported as “more efficient compared to activin B”. The “fold induction of FOXA2 gene expression as compared to undifferentiated hESCs” value in series [2] (FIG. 2D) is reported as 438 fold.
On to `O=C1Nc2cc(Br)ccc2/C1=C1/Nc2ccccc2/C1=N\O` [GSK3 inhibitor No. 9], for which, in series [3], the “differentiation of hES cells to definitive endoderm” value is recorded as “Neither GSK3 inhibitor No. 9 (“BIO”) nor GSK3 inhibitor No. 8 (GVIII) at 10 or 100 nM resulted in substantial differentiation”.
On to “activin A: TGF-beta family growth factor used at 100 ng/mL to produce definitive endoderm”, for which the “expression of endocrine markers NKX2-2 and INS, fold higher than the non-Activin A treated plates” value in series [4] (FIG. 5C-D) is given as at least 1200 fold. Moreover, in series [4] (FIGS. 5A-D), the “production of pancreatic endoderm and endocrine cell types as indicated by induction of PDX1, PTF1A, NKX2-2 and INS gene expression” value is “produced only in the activin A treatment condition”. In series [4] (comparator GDF15, FIG. 5A), the “PDX1 expression level, fold higher in the presence of activin A as compared to GDF15” value was 14,497 fold. For the same molecule, the “PDX1 expression level, fold higher in the presence of activin A as compared to TGF-beta1” value in series [4] (comparator TGF-beta1, FIG. 5A) is reported as 1413 fold. In addition, the “definitive endoderm production as indicated by induction of SOX17 and CER1 gene expression” value in series [5] (activin A 100 ng/ml, other ligands 100 ng/ml to 4 ug/ml, 75 ng/mL Wnt3a on first day, FIG. 4A-B) is on record as “definitive endoderm was produced only in the activin A treatment condition”.
Regarding “insulin: protein that binds to the insulin receptor and can induce signaling”, in series [6], the “insulin concentration detrimental for the production of definitive endoderm cells from hES cells” value is at least 0.2 µg/mL.
With `COc1ccc(CNC(=O)Nc2ncc([N+](=O)[O-])s2)cc1` [GSK3 inhibitor No. 8], the “differentiation of hES cells to definitive endoderm” value in series [3] is recorded as “Neither GSK3 inhibitor No. 9 (“BIO”) nor GSK3 inhibitor No. 8 (GVIII) at 10 or 100 nM resulted in substantial differentiation”.
As to “GDF11: TGF-beta family member with approximately 90% identity to myostatin”, the “subsequent differentiation” value in series [1] was “as effective”. The “effectiveness for induction of definitive endoderm differentiation derived from hES cells” value in series [2] (100 ng/mL) was “as effective as activin A”. Also, in series [2], the “fold induction of SOX17 gene expression as compared to undifferentiated hESCs” value was 1306 fold and the “efficiency in generating definitive endoderm cell populations” value is “more efficient compared to activin B”. For the same molecule, in series [2] (FIG. 2D), the “fold induction of FOXA2 gene expression as compared to undifferentiated hESCs” value is 382 fold.

B1: TGF-beta3: isoform of transforming growth factor beta (protein, UniProt P10600 301-412, looked up)
Transforming growth factor …: ALDTNYCFRNLEENCCVRPLYIDFRQDLGWKWVHEPKGYYANFCSGPCPYLRSADTTHSTVLGLYNTLNPEASASPCCVPQDLEPLTILYYVGRTPKVEQLSNMVVKSCKCS
With B1, the “CDX2 induction level, fold higher expression over that observed with the activin A treatment” value in series [5] was 2,667 fold.

B2: activin B: TGF-beta family growth factor (R&D Systems) (protein, UniProt P09529 293-407, looked up)
Inhibin beta B chain: GLECDGRTNLCCRQQFFIDFRLIGWNDWIIAPTGYYGNYCEGSCPAYLAGVPGSASSFHTAVVNQYRMRGLNPGTVNSCCIPTKLSTMSMLYFDDEYNIVKRDVPNMIVEECGCA
B2: the “subsequent differentiation” value in series [1] is listed as “less effective”. Besides, the “expression of ISL1 as compared to activin A treated cultures” value in series [2] (100 ng/mL, FIG. 2B, indicates mesoderm differentiation) was “higher expression”. Besides, the “FOXA2 induction (in words)” value in series [2] (100 ng/mL, FIG. 2D) was “lower”.

B3: GDF3: TGF-beta family member also known as Vg-related gene 2 (protein, UniProt Q9NR23 251-364, looked up)
Growth/differentiation factor …: AAIPVPKLSCKNLCHRHQLFINFRDLGWHKWIIAPKGFMANYCHGECPFSLTISLNSSNYAFMQALMHAVDPEIPQAVCIPTKLSPISMLYQDNNDNVILRHYEDMVVDECGCG
B3: in series [5], the “CDX2 induction level, fold higher expression over that observed with the activin A treatment” value is recorded as 900 fold.

Source of the values: patent publication US20090298178A1, “GROWTH FACTORS FOR PRODUCTION OF DEFINITIVE ENDODERM” (priority 2008, published 2009).
